Data as given in paper PMC7577153, “Identification of Small-Molecule Inhibitors Targeting Porphyromonas gingivalis Interspecies Adherence and Determination of Their In Vitro and In Vivo Efficacies” (Antimicrobial Agents and Chemotherapy, 2020).
Read-outs that look alike come from different tables or passages of the source.

Tests used:
P. gingivalis = test: microbicidal activity: growth curve in medium with compound; type: cell-based, Porphyromonas gingivalis; details: 40 μM, 24 h, OD600
Experimental: (§1) To confirm that N7, N17, and V8 function by inhibiting P. gingivalis adherence to S. gordonii rather than acting as antibacterial agents, the microbicidal activity of the compounds was determined by growing the organisms in medium containing 40 μM of each compound for 24 h. […] The structures of compounds N7, N17, and V8 are shown in Fig. 3A, B, and C, respectively. In addition, overlays of compound N17 with the NITVK motif and compound V8 with the VXXLL motif of Ag I/II are shown in Fig. 3D and E, respectively.
(§2) FIG 2 S. gordonii (A) and P. gingivalis (B) were grown for 24 h in medium containing 40 μM of each compound, and growth was quantified at various time points by measuring the OD600 for each culture. One-way analysis of variance (ANOVA) was performed to determine statistical significance.
(§3) P. gingivalis ATCC 33277 was cultured in reduced Trypticase soy broth-yeast extract (TSBY) medium comprised of 30 g/liter TSB (Difco Laboratories Inc., Detroit, MI), 5% (wt/vol) yeast extract supplemented with 5 mg/liter hemin and 1 mg/liter menadione under anaerobic conditions (10% CO2, 10% H2, and 80% N2) at 37°C for 48 h. Reduced TSBY medium was prepared by incubating the medium under anaerobic conditions at 37°C for 24 h prior to bacterial inoculation. Streptococcus gordonii DL1 was grown in brain heart infusion (BHI) (Difco Laboratories Inc.) broth supplemented with 5% (wt/vol) yeast extract under anaerobic conditions as described above.

HL60 cells [1] = details: 18 h
Experimental: The mouse macrophage cell line J774A.1 was grown in Dulbecco’s modified Eagle medium (DMEM) (Thermo Fisher Scientific, Waltham, MA) supplemented with 4.5 g/ml glucose, 10% fetal bovine serum (FBS), and 100 U/ml penicillin-streptomycin (Sigma-Aldrich, St. Louis, MO). HL60 (ATCC CCL240) cells were obtained from the American Type Culture Collection and cultured in Iscove’s modified Dulbecco’s medium (Sigma-Aldrich) supplemented with 20% fetal bovine serum (FBS) (Sigma-Aldrich).
The apoptotic activity of the compounds was determined using the phycoerythrin (PE) annexin V/dead cell apoptosis kit with Sytox green for flow cytometry (Invitrogen, Carlsbad, CA). Cells were grown in 12-well flat-bottom microtiter plates at an initial density 2 × 10^5 cells in 1.5-ml medium per well for 24 h. Following the incubation period, spent medium was replaced with fresh medium containing the desired concentration of the test compound and incubated for another 18 h. After trypsinization, cells were harvested by centrifuging at 250 × g for 4 min, and the cell pellet was suspended in 100 μl of binding buffer supplemented with 1 μl Sytox and 5 μl annexin V, followed by incubation at 37°C for 15 min. Samples were then diluted by adding 400-μl binding buffer, and flow cytometry was performed using a FACScalibur flow cytometer (Becton, Dickinson, Franklin Lakes, NJ), measuring the fluorescence emissions at 530 nm and 575 nm.

[2] = tested on: P. gingivalis adherence to S. gordonii; test: organism not typed; type: cell-based, Porphyromonas gingivalis; details: for dose-dependent inhibition of P. gingivalis adherence and biofilm formation: 5, 10, 15, 25, and 40 μM; for inhibition at 40 µM: read-out: inhibition of P. gingivalis adherence to S. gordonii and biofilm formation
Experimental: Using the two species biofilm model described by Patil et al. ([19]), the in vitro effectiveness of the compounds was determined by their ability to inhibit P. gingivalis adherence to S. gordonii and subsequent biofilm formation at an initial concentration of 40 μM.
To quantify P. gingivalis adherence to S. gordonii, a two-species biofilm model was employed as previously described ([19], [33]). Briefly, 20 ml of an overnight culture of S. gordonii was centrifuged at 5600 × g (MIKRO 220R, Hettich Zentrifugen) for 10 min, and the harvested cells were washed with phosphate-buffered saline (PBS; 10 mM Na2HPO4, […], […], and 2.7 mM KCl [pH 7.2]). To label S. gordonii, the cell pellet was suspended in 1 ml of PBS containing 20 μl of 5 mg/ml of hexidium iodide (Molecular Probes; Eugene, OR) and incubated in the dark for 15 min at room temperature with gentle shaking. The labeled cells were than centrifuged at 5600 × g for 5 min and washed twice with PBS. Finally, the cells were suspended in PBS to a final optical density at 600 nm (OD600) of 0.6, and 1 ml of labeled S. gordonii cells was added to each well of a 12-well microtiter plate (Greiner Bio-one, Monroe, NC) containing a circular coverslip (Fisher Scientific, Hampton, NH). Plates were incubated at 37°C for 24 h under anaerobic conditions on a rotary shaker. On the following day, cells from a 10-ml overnight P. gingivalis culture were harvested as described above and fluorescent labeling was performed by incubating the cells in 1 ml PBS containing 20 μl of 5(6)-carboxyfluorescein N-hydroxysuccinimide ester (4 mg/ml) (Thermo Fisher, Waltham, MA) for 30 min in the dark at room temperature with gentle shaking. After being washed two times with PBS, the labeled cells were suspended in PBS at a final OD600 of 0.4. While this reaction was carried out, unattached S. gordonii cells were removed from each well by aspiration, and subsequently, 1 ml of labeled P. gingivalis cells alone or with the desired concentration of the compounds to be tested was added to each well of the microtiter plates. Plates were incubated at 37°C for 24 h under anaerobic conditions. The compounds that were tested were initially dissolved in dimethyl sulfoxide (DMSO) to generate a 1,000× stock solution and subsequently diluted in the cell suspensions to obtain the working concentration. For the control wells, DMSO without a test compound was added to a final concentration of 0.1% in order to maintain a constant DMSO concentration in all wells.
Unbound P. gingivalis cells were removed from each well by aspiration, and the coverslips were washed twice with 5 ml of PBS. Biofilms were then fixed with 4% paraformaldehyde for 5 min in the dark and washed two times with 5 ml of PBS. The coverslips were mounted on a glass slide (Sigma-Aldrich) containing a drop of Prolong gold anti-fade agent (Molecular Probes, Eugene, OR) and sealed with transparent nail polish.
Visualization of the biofilms was carried out by laser scanning confocal microscopy using an SP8 confocal microscope (Leica Microsystems, Inc., Buffalo Grove, IL), with the laser source settings at 488 nm and 552 nm to visualize P. gingivalis and S. gordonii, respectively. Images were collected using a Z plane scan for a depth of 25 μm using a Z step thickness of 0.7 μm. Background noise was reduced using the software that was supplied with the Leica SP8 microscope. Three-dimensional reconstruction of the Z plane scans and quantification of the red and green channel fluorescence were performed using Volocity 6.3 image analysis software (PerkinElmer, Waltham, MA).

S. gordonii = test: microbicidal activity: growth curve in medium with compound; type: cell-based, Streptococcus gordonii; details: 40 μM, 24 h, OD600
Experimental: as §1, §2, §3

HL60 cells [3] = test: total cellular ATP (CellTiterGlo); type: cell-based, human; details: HL-60 cells, 5, 20 and 40 μM, 18 h
Experimental: (§4) To determine the metabolic activity of cells, the total cellular ATP level was measured in cell culture samples using the CellTiterGlo reagent (Promega Inc. Madison, WI). Cells were grown as described above in the presence of the desired concentration of compounds. The spent medium was decanted, and cells were washed three times with PBS and subsequently incubated with 100 μl of the CellTiterGlo substrate. To facilitate the reaction, plates were incubated at room temperature for 2 min with shaking and for an additional 10 min without shaking. Total light production was measured using a Victor 3 multilabel plate reader (PerkinElmer).

J774A.1 cells = test: total cellular ATP (CellTiterGlo); type: cell-based, mouse; details: J774A.1 cells, 5, 20 and 40 μM, 18 h
Experimental: as §4

Cl.N=c1n(CCN2CCCCC2)c2ccccc2n1CC(O)COc1ccc(Cl)cc1 (centres unmarked) [N7, 1-(4-chlorophenoxy)-3-{2-imino-3-[2-(piperidin-1-yl)ethyl]-2,3-dihydro-1H-1,3-benzodiazol-1-yl}propan-2-ol hydrochloride] was tested. Which “growth curve versus medium alone or 0.1% DMSO” value (P. gingivalis) did it give?
The value was “not significantly different”.

What about the “Early apoptosis (%)” value (HL60 cells [1]; HL60, 5 μM) of the same compound?
The value was 3.6%.

And the “Late apoptosis/necrosis (%)” value (HL60 cells [1]; HL60, 5 μM)?
Its value is 7.8%.

And the “Live cells (%)” value (HL60 cells [1]; HL60, 5 μM)?
Its value is 87.4%.

And the “Early apoptosis (%)” value (HL60 cells [1]; HL60, 20 μM)?
Its value is 20.9%.

What about the “Late apoptosis/necrosis (%)” value (HL60 cells [1]; HL60, 20 μM) of the same compound?
The value was 43.9%.

What about the “Live cells (%)” value (HL60 cells [1]; HL60, 20 μM) of the same compound?
The value was 27.3%.

And the “Early apoptosis (%)” value (HL60 cells [1]; HL60, 40 μM)?
Its value is 7.7%.

And the “Late apoptosis/necrosis (%)” value (HL60 cells [1]; HL60, 40 μM)?
Its value is 70.8%.

What about the “Live cells (%)” value (HL60 cells [1]; HL60, 40 μM) of the same compound?
Its value is 18.9%.

What about the “dose-dependent inhibition of P. gingivalis adherence and biofilm formation” value [2] of the same compound?
Its value is “inhibited P. gingivalis adherence and biofilm formation in a dose-dependent manner”.

And the inhibition at 40 µM [2]?
Its inhibition at 40 µM is 40%.

What about the “growth curve versus medium alone or 0.1% DMSO” value (S. gordonii) of the same compound?
Its value is “not significantly different”.

With Cc1cc([C@H]2CCCN(CC(=O)NC3(C#N)CCCC3)C2)n[nH]1 [V8, N-(1-cyanocyclopentyl)-2-[3-(5-methyl-1H-pyrazol-3-yl)piperidin-1-yl] acetamide] as the compound, how does the “growth curve versus medium alone or 0.1% DMSO” value (P. gingivalis) read?
The value was “not significantly different”.

What about the ATP levels (HL60 cells [3]) of the same compound?
The ATP levels was “no significant effect”.

What about the ATP levels (J774A.1 cells) of the same compound?
The ATP levels was “no significant effect”.

And the “Early apoptosis (%)” value (HL60 cells [1]; HL60, 5 μM)?
Its value is 2.9%.

And the “Late apoptosis/necrosis (%)” value (HL60 cells [1]; HL60, 5 μM)?
The value was 5.6%.

What about the “Live cells (%)” value (HL60 cells [1]; HL60, 5 μM) of the same compound?
Its value is 91.8%.

What about the “Early apoptosis (%)” value (HL60 cells [1]; HL60, 20 μM) of the same compound?
Its value is 3.7%.

And the “Late apoptosis/necrosis (%)” value (HL60 cells [1]; HL60, 20 μM)?
Its value is 5.0%.

What about the “Live cells (%)” value (HL60 cells [1]; HL60, 20 μM) of the same compound?
The value was 91.3%.

And the “Early apoptosis (%)” value (HL60 cells [1]; HL60, 40 μM)?
Its value is 2.4%.

What about the “Late apoptosis/necrosis (%)” value (HL60 cells [1]; HL60, 40 μM) of the same compound?
The value was 6.7%.

What about the “Live cells (%)” value (HL60 cells [1]; HL60, 40 μM) of the same compound?
Its value is 88.4%.

And the “dose-dependent inhibition of P. gingivalis adherence and biofilm formation” value [2]?
The value was “inhibited P. gingivalis adherence and biofilm formation in a dose-dependent manner”.

And the inhibition at 40 µM [2]?
The inhibition at 40 µM was ≥ 40%.

And the “growth curve versus medium alone or 0.1% DMSO” value (S. gordonii)?
The value was “not significantly different”.

With O=C(Nc1ccccc1O)c1cccc(N2C(=O)c3ccc(C(=O)Nc4ccccc4O)cc3C2=O)c1 [N17, N-(2-hydroxyphenyl)-2-{3-[(2-hydroxyphenyl)carbamoyl]phenyl}-1,3-dioxo-2,3-dihydro-1H-isoindole-5-carboxamide] as the compound, how does the “growth curve versus medium alone or 0.1% DMSO” value (P. gingivalis) read?
Its value is “not significantly different”.

What about the ATP levels (HL60 cells [3]) of the same compound?
Its ATP levels is “no significant effect”.

What about the ATP levels (J774A.1 cells) of the same compound?
Its ATP levels is “no significant effect”.

What about the “Early apoptosis (%)” value (HL60 cells [1]; HL60, 5 μM) of the same compound?
The value was 2.7%.

What about the “Late apoptosis/necrosis (%)” value (HL60 cells [1]; HL60, 5 μM) of the same compound?
The value was 4.7%.

And the “Live cells (%)” value (HL60 cells [1]; HL60, 5 μM)?
Its value is 91.3%.

And the “Early apoptosis (%)” value (HL60 cells [1]; HL60, 20 μM)?
The value was 2.2%.

And the “Late apoptosis/necrosis (%)” value (HL60 cells [1]; HL60, 20 μM)?
The value was 6.0%.

What about the “Live cells (%)” value (HL60 cells [1]; HL60, 20 μM) of the same compound?
Its value is 90.3%.

And the “Early apoptosis (%)” value (HL60 cells [1]; HL60, 40 μM)?
The value was 2.3%.

What about the “Late apoptosis/necrosis (%)” value (HL60 cells [1]; HL60, 40 μM) of the same compound?
The value was 6.3%.

What about the “Live cells (%)” value (HL60 cells [1]; HL60, 40 μM) of the same compound?
The value was 91.6%.

And the “dose-dependent inhibition of P. gingivalis adherence and biofilm formation” value [2]?
The value was “inhibited P. gingivalis adherence and biofilm formation in a dose-dependent manner”.

What about the IC50 ([2]; Porphyromonas gingivalis, read-out: 50% inhibitory concentration (IC50) of P. gingivalis adherence in vitro) of the same compound?
The IC50 was ~18 µM.

And the inhibition at 40 µM [2]?
The inhibition at 40 µM was 60%.

And the “growth curve versus medium alone or 0.1% DMSO” value (S. gordonii)?
The value was “not significantly different”.
